Values after ≈ are worked out from the molar mass of the structure shown.
Columns and labels:
[1] = tested on: Pseudomonas aeruginosa ATCC 27,953; test: MIC, two-fold serial dilution, P. aeruginosa; assay type: cell-based; details: ATCC27, read-out: Minimum inhibitory concentration, PA
Source text: (§1) The new molecules were individually tested for their antimicrobial activity in vitro against standard bacteria strains from the American Type Culture Collection (ATCC), namely, Staphylococcus aureus ATCC 29213, Bacillus subtilis ATCC 6633, Bacillus megaterium ATCC 9885 (Gram-positive), Escherichia coli ATCC 2592, and Pseudomonas aeruginosa ATCC 27,953 (Gram-negative). The compounds were also microbiologically tested against locally isolated Saccharomyces cerevisiae (yeast) and the standard Agricultural Research Service Culture Collection (NRRL) strain of the yeast-like pathogenic fungus Candida albicans NRRL Y-477. Primary screening was conducted using the agar well diffusion method using nutrient agar (NA) medium and Sabourand dextrose agar (SDA) medium for the tested pathological bacteria and yeast, respectively. […].
(§2) The bacteriostatic activity of the active compounds (having IZ > 16 mm) was then evaluated using the two-fold serial dilution technique. Two-fold serial dilutions of the tested compounds solutions were prepared using the proper nutrient broth to reach final concentrations of 1000, 500, 250, and 125 μg/mL. The tubes were then inoculated with the test microorganisms grown in their suitable broth at 37 °C for 24 h (1 × 10^8 CFU/mL for bacteria and 1 × 10^6 CFU/mL of yeast), 0.1 mL of the above inoculum was administered per 5 mL, and the tubes were incubated at 37 °C for 24 h. The lowest concentration showing no growth was taken as the MIC.

[2] = tested on: Saccharomyces cerevisiae local isolate; test: MIC, two-fold serial dilution, S. cerevisiae; assay type: cell-based; details: two-fold serial dilution, S. cerevisiae, read-out: Minimum inhibitory concentration, SC
Source text: as §1, §2

[3] = tested on: Candida albicans NRRL Y-477; test: Agar well diffusion, C. albicans; assay type: cell-based; details: NRRLY477, 100 μL of 10 mg/mL in DMSO, read-out: diameter of inhibition zone, CA
Source text: as §1
(§3) Antimicrobial tests were conducted via the agar well diffusion method using 100 μL of suspension containing 1 × 10^8 CFU/mL pathological tested bacteria and 1 × 10^6 CFU/mL yeast spread on NA and SDA, respectively. After the media cooled and solidified, wells (10 mm in diameter) were made in the solidified agar and loaded with 100 μL of the tested compound solution prepared by dissolving 10 mg of the chemical compound in 1 mL dimethyl sulfoxide (DMSO). The inoculated plates were then incubated for 24 h at 37 °C for bacteria and yeast growth. DMSO served as negative control. Ciprofloxacin (10 mg/mL) and ketoconazole (10 mg/mL) were used as standards for antibacterial and antifungal activity, respectively. After incubation, antimicrobial activity was evaluated by measuring the zone of inhibition against the test organisms and compared with that of the standard. Antimicrobial activities were expressed as the diameter of the inhibition zone (IZ) in mm. The experiment was carried out in triplicate and the average zone of inhibition was calculated.

[4] = tested on: Candida albicans NRRL Y-477; test: MIC, two-fold serial dilution, C. albicans; assay type: cell-based; details: NRRLY477, read-out: Minimum inhibitory concentration, CA
Source text: as §1, §2

[5] = DPPH antioxidant assay (radical scavenging); assay type: biochemical; details: mean ± SD (n = 3)
Method: The antioxidant effects of the synthesised compounds were assessed using the 2,2-diphenyl-1-picrylhydrazyl (DPPH) antioxidant assay. Table 1 summarises the antioxidant effects of the test samples and ascorbic acid except for compound 5b because it was produced in poor yield.
The radical scavenging activity of the synthesised compounds was measured using the DPPH microplate-based method. The absorbance was measured using a microplate/cuvette reader (Spectramax M5, Molecular Devices, San Jose, CA, USA). Reference standard ascorbic acid was utilised as the positive control for this assay. Test samples were prepared at a starting concentration of 200 μg/mL after mixing with 100 μL of 0.2 mM DPPH methanolic solution. […] Samples were incubated with DPPH in the dark for 30 min at room temperature (25 °C). The methanolic DPPH solution was prepared daily and stored in a flask covered with aluminium foil. DPPH radicals have an absorption maximum (λmax) at 515 nm, at which the absorbance values were measured and converted into a percentage of antioxidant activity.
The methanolic DPPH solution without antioxidants was used as a control, and samples in methanol alone served as a background control. IC50 was determined using GraphPad Prism 7 (GraphPad Software Inc., San Diego, CA, USA). The percent inhibition was calculated using the following Equation (1):(1) % Inhibition=100−Sample Absorbance −Sample background Absorbance/DPPH only Absorbance×100
The assay was carried out in triplicate and performed as much as possible in an area protected against light. The data points are presented as the mean ± standard deviation (SD, n = 3).

[6] = tested on: Saccharomyces cerevisiae local isolate; test: Agar well diffusion, S. cerevisiae; assay type: cell-based; details: well diffusion, 100 μL of 10 mg/mL in DMSO, S. cerevisiae, read-out: diameter of inhibition zone, SC
Source text: as §1, §3

[7] = tested on: Staphylococcus aureus ATCC 29213; test: Agar well diffusion, S. aureus; assay type: cell-based; details: ATCC29213, 100 μL of 10 mg/mL in DMSO, read-out: diameter of inhibition zone, SA
Source text: as §1, §3

[8] = tested on: Escherichia coli ATCC 2592; test: Agar well diffusion, E. coli; assay type: cell-based; details: ATCC2592, 100 μL of 10 mg/mL in DMSO, read-out: diameter of inhibition zone, EC
Source text: as §1, §3

[9] = tested on: Pseudomonas aeruginosa ATCC 27,953; test: Agar well diffusion, P. aeruginosa; assay type: cell-based; details: ATCC27, 100 μL of 10 mg/mL in DMSO, read-out: diameter of inhibition zone, PA
Source text: as §1, §3

[10] = tested on: Escherichia coli ATCC 2592; test: MIC, two-fold serial dilution, E. coli; assay type: cell-based; details: ATCC2592, read-out: Minimum inhibitory concentration, EC
Source text: as §1, §2

[11] = tested on: Bacillus subtilis ATCC 6633; test: Agar well diffusion, B. subtilis; assay type: cell-based; details: ATCC6633, 100 μL of 10 mg/mL in DMSO, read-out: diameter of inhibition zone, BS
Source text: as §1, §3

[12] = tested on: Bacillus megaterium ATCC 9885; test: MIC, two-fold serial dilution, B. megaterium; assay type: cell-based; details: Priestia megaterium, ATCC9885, read-out: Minimum inhibitory concentration, BM
Source text: as §1, §2

[13] = tested on: Bacillus subtilis ATCC 6633; test: MIC, two-fold serial dilution, B. subtilis; assay type: cell-based; details: ATCC6633, read-out: Minimum inhibitory concentration, BS
Source text: as §1, §2

[14] = tested on: Staphylococcus aureus ATCC 29213; test: MIC, two-fold serial dilution, S. aureus; assay type: cell-based; details: ATCC29213, read-out: Minimum inhibitory concentration, SA
Source text: as §1, §2

[15] = tested on: Bacillus megaterium ATCC 9885; test: Agar well diffusion, B. megaterium; assay type: cell-based; details: Priestia megaterium, ATCC9885, 100 μL of 10 mg/mL in DMSO, read-out: diameter of inhibition zone, BM
Source text: as §1, §3

tested microorganisms = test: MIC, summary over the tested microorganisms; assay type: cell-based; details: two-fold serial dilution; read-out: MIC against one or more tested microorganisms
Source text: as §1, §2

trypsin = test: Proteinase-inhibitory activity; assay type: biochemical; details: 250 µg/mL; mean ± SD (n = 3)
Method: The newly synthesised compounds were individually tested for their in vitro anti-inflammatory activity against proteinase enzyme. […] This test was performed at the Pharmacology Department, Medical Research Division, National Research Centre, Cairo, Egypt. Furthermore, compounds 2–8 were evaluated for their COX1/COX2 inhibitory activities.
The test was performed according to El-Serwy et al. with minor modifications. The reaction mixture (2 mL) contained 0.06 mg trypsin, 20 mM Tris HCl buffer (pH 7.4), and 1 mL test sample (250 µg/mL for each compound). After incubating for 5 min, 1 mL of 0.8% (w/v) casein was added. The mixture was incubated for an additional 20 min. The reaction was arrested by adding 1 mL of 10% perchloric acid. The cloudy suspension was centrifuged, and the absorbance of the supernatant was read at 280 nm. Reference standard aspirin was used as the positive control. The experiment was performed in triplicate. The percent inhibition of protein denaturation was calculated using the following Equation (2):(2) % Inhibition=100−A control −A test/A control×100 where Acontrol and Atest represent the absorbance of the control reaction without and with the sample, respectively.

Row | SMILES | MIC [1] | melting point | MIC [2] | zone of inhibition at 10000 µg/mL [3] | MIC [4] | IC50 [5] | zone of inhibition at 10000 µg/mL [6] | zone of inhibition at 10000 µg/mL [7] | zone of inhibition at 10000 µg/mL [8] | zone of inhibition at 10000 µg/mL [9] | MIC [10] | zone of inhibition at 10000 µg/mL [11] | MIC [12] | MIC [13] | MIC [14] | zone of inhibition at 10000 µg/mL [15] | MIC (tested microorganisms) | % Inhibition (proteinase) (trypsin)
1 | Cc1ccc2oc(=O)c(S(=O)(=O)Nc3ccc(C(=O)/C=C/c4ccc([N+](=O)[O-])cc4)cc3)c(O)c2c1 [9b, (E)-4-Hydroxy-6-methyl-N-(4-(3-(4-nitrophenyl)acryloyl)phenyl)-2-oxo-2H-chromene-3-sulfonamide] | 250 µg/mL (≈ 494 µM) | 220 °C | 500 µg/mL (≈ 987 µM) | 23 mm | 500 µg/mL (≈ 987 µM) | — ((—): inactive (IC50 > 200 μg/mL)) | 25 mm | 22 mm | 26 mm | 26 mm | 250 µg/mL (≈ 494 µM) | 24 mm | 500 µg/mL (≈ 987 µM) | 500 µg/mL (≈ 987 µM) | 500 µg/mL (≈ 987 µM) | 25 mm | – | –
2 | O=C(/C=C/c1ccc(Cl)cc1)c1ccc(NS(=O)(=O)c2c(O)c3cc(Cl)ccc3oc2=O)cc1 [9c, (E)-6-Chloro-N-(4-(3-(4-chlorophenyl)acryloyl)phenyl)-4-hydroxy-2-oxo-2H-chromene-3-sulfonamide] | 250 µg/mL (≈ 484 µM) | 157 to 159 °C | 125 µg/mL (≈ 242 µM) | 30 mm | 125 µg/mL (≈ 242 µM) | — ((—): inactive (IC50 > 200 μg/mL)) | 31 to 32 mm | 28 mm | 30 mm | 30 mm | 250 µg/mL (≈ 484 µM) | 29 mm | 250 µg/mL (≈ 484 µM) | 250 µg/mL (≈ 484 µM) | 250 µg/mL (≈ 484 µM) | 30 mm | 125 µg/mL (≈ 242 µM) | 17.6 ± 6.86%
3 | Cc1ccc2oc(=O)c(S(=O)(=O)Nc3ccc(C(=O)/C=C/c4ccc(Cl)cc4)cc3)c(O)c2c1 [9d, (E)-N-(4-(3-(4-chlorophenyl)acryloyl)phenyl)-4-hydroxy-6-methyl-2-oxo-2H-chromene-3-sulfonamide] | 250 µg/mL (≈ 504 µM) | 141 to 143 °C | 125 µg/mL (≈ 252 µM) | 30 mm | 125 µg/mL (≈ 252 µM) | — ((—): inactive (IC50 > 200 μg/mL)) | 31 to 32 mm | 28 mm | 38 mm | 29 mm | 250 µg/mL (≈ 504 µM) | 29 mm | 250 µg/mL (≈ 504 µM) | 250 µg/mL (≈ 504 µM) | 250 µg/mL (≈ 504 µM) | 29 mm | 125 µg/mL (≈ 252 µM) | 31.88 ± 3.82%
4 | COc1ccc(/C=C/C(=O)c2ccc(NS(=O)(=O)c3c(O)c4cc(Cl)ccc4oc3=O)cc2)cc1 [9e, (E)-6-Chloro-4-hydroxy-N-(4-(3-(4-methoxyphenyl)acryloyl)phenyl)-2-oxo-2H-chromene-3-sulfonamide] | 500 µg/mL (≈ 977 µM) | > 300 °C | 250 µg/mL (≈ 488 µM) | 23 mm | 500 µg/mL (≈ 977 µM) | — ((—): inactive (IC50 > 200 μg/mL)) | 29 mm | 23 mm | 21 mm | 21 mm | 500 µg/mL (≈ 977 µM) | 21 mm | 500 µg/mL (≈ 977 µM) | 500 µg/mL (≈ 977 µM) | 500 µg/mL (≈ 977 µM) | 20 mm | – | 22.83 ± 4.88%
5 | COc1ccc(/C=C/C(=O)c2ccc(NS(=O)(=O)c3c(O)c4cc(C)ccc4oc3=O)cc2)cc1 [9f, (E)-4-Hydroxy-N-(4-(3-(4-methoxyphenyl)acryloyl)phenyl)-6-methyl-2-oxo-2H-chromene-3-sulfonamide] | 250 µg/mL (≈ 509 µM) | > 300 °C | 500 µg/mL (≈ 1020 µM) | 24 mm | 500 µg/mL (≈ 1020 µM) | — ((—): inactive (IC50 > 200 μg/mL)) | 26 mm | 25 mm | 26 mm | 28 mm | 250 µg/mL (≈ 509 µM) | 25 mm | 250 µg/mL (≈ 509 µM) | 500 µg/mL (≈ 1020 µM) | 500 µg/mL (≈ 1020 µM) | 26 mm | – | 21.7 ± 7.6%
6 | O=C(O)c1cn(C2CC2)c2cc(N3CCNCC3)c(F)cc2c1=O [Ciprofloxacin, reference compound] | 125 µg/mL (≈ 377 µM) | – | – | < 15 mm | – | – | < 15 mm | 28 mm | 30 mm | 30 mm | 125 µg/mL (≈ 377 µM) | 30 mm | 125 µg/mL (≈ 377 µM) | 125 µg/mL (≈ 377 µM) | 125 µg/mL (≈ 377 µM) | 30 mm | – | –

Reference: PMC7397269, “Synthesis and Evaluation of New Coumarin Derivatives as Antioxidant, Antimicrobial, and Anti-Inflammatory Agents” (Molecules, 2020)
